Measured values published in article PMC12365235, “Molecular mechanisms of thiazide-like diuretics-mediated inhibition of the human Na-Cl cotransporter” (Nature Communications, 2025).
Residue numbers refer to the chain shown, from its start. Entries after “also recorded” stand apart in the source; their conditions may differ.

Key:
hNCC(C472F) = molecular target: T1, hNCC(C472F) (Homo sapiens, UniProt P55017, C472F); experiment: 125I- uptake assay, hNCC(C472F) variant; type: cell-based
T1 construct: expressed in transfected cells
T1 sequence (P55017 1-1021 C472F): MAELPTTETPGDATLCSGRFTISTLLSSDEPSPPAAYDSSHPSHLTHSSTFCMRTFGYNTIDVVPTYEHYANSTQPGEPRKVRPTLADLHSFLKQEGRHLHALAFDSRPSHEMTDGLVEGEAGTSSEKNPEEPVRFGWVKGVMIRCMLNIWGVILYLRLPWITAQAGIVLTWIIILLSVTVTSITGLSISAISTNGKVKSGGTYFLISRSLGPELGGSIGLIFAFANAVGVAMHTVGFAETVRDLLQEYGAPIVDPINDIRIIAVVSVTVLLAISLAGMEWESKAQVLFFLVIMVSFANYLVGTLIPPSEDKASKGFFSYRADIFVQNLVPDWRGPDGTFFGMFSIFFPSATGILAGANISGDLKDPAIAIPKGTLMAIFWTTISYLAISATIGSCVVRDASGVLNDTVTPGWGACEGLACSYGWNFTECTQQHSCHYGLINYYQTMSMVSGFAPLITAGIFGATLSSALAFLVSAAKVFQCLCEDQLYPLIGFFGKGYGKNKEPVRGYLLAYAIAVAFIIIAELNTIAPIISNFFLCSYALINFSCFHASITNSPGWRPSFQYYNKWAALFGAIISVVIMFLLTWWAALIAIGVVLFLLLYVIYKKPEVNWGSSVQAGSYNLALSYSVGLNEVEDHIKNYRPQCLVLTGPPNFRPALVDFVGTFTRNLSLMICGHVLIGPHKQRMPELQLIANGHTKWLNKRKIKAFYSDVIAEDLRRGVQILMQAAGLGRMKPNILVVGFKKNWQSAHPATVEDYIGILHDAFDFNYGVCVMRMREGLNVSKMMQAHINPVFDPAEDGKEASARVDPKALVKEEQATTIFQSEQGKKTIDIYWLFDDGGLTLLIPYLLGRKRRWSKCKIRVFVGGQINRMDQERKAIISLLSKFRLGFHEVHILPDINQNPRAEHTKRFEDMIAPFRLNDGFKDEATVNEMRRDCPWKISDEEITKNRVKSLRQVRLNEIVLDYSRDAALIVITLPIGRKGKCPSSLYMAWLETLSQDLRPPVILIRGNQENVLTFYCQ
Experimental: (§1) HEK293S cell lines, cultured in 293 Freestyle medium (Life Technologies; plus 10% fetal bovine serum), stably expressing hNCC and its variants were generated following published protocols. Cells were transfected using Lipofectamine 3000 (Invitrogen) with a pSBbi-RP-based plasmid containing hNCC or its variants and the SB100X vector. Puromycin (2 μg/mL; Gemini Bio-Products) was used for selection of stable cell lines.
(§2) To prepare for the uptake experiment, cells were plated at 0.5 × 10^6 cells/well in 24-well plates one day in advance. To activate NCC, cells were treated with a chloride-free hypotonic solution composed of 67.5 mM sodium-, 2.5 mM potassium-, 0.25 mM magnesium-, and 0.25 mM calcium-gluconate, as well as 7.5 mM HEPES pH 7.4 (buffered using Tris) at 37 °C for 10 min[72]. After the activation step, the experiments were carried out at room temperature. Ten minutes before the start of ^125I^− uptake, 70 μM Bumetanide (Thermo Scientific Chemicals) and 100 μM 4,4′-diisothiocyanatostilbene-2,2′-disulfonic acid (DIDS; Sigma) were added to suppress background iodide uptake activity. Indicated thiazide diuretics were also added to the indicated concentrations 10 min before the start of ^125I^− uptake. The original buffer was switched to an uptake buffer composed of 135 mM Na-gluconate, 5 mM K-gluconate, 1 mM Mg-gluconate, 1 mM Ca-gluconate, 70 μM bumetanide, 100 μM DIDS, 1 mM NaI, 0.25 μCi/ml Na^125I (American Radiolabeled Chemicals, Inc.), and 15 mM HEPES pH 7.4 (buffered using Tris), in the presence or absence of thiazide diuretics to initiate ^125I^− uptake. The ^125I^− uptake process lasted 1 h and was stopped by two rapid washes using ice-cold 110 mM MgCl2. Cells lysed using 1% sodium dodecyl sulfate (SDS) were analyzed by scintillation counting.

hNCC(T352I) = molecular target: T2, hNCC(T352I) (Homo sapiens, UniProt P55017, T352I); experiment: 125I- uptake assay, hNCC(T352I) variant; type: cell-based; conditions: 100 μM polythiazide
T2 construct: expressed in transfected cells
T2 sequence (P55017 1-1021 T352I): T1 sequence (P55017 1-1021 C472F) with T352I, F472C
Experimental: as §1
as §2, with “The original buffer was switched to an uptake buffer composed of 135 mM Na-gluconate, 5 mM K-gluconate, 1 mM Mg-gluconate, 1 mM Ca-gluconate, 70 μM bumetanide, 100 μM DIDS, 1 mM NaI, 0.25 μCi/ml Na^125I (American Radiolabeled Chemicals, Inc.), and 15 mM HEPES pH 7.4 (buffered using Tris), in the presence or absence of thiazide diuretics to initiate ^125I^− uptake. The ^125I^− uptake process lasted 1 h and was stopped by two rapid washes using ice-cold 110 mM MgCl2.” left out

**Q.** With `CN1C(CSCC(F)(F)F)Nc2cc(Cl)c(S(N)(=O)=O)cc2S1(=O)=O` (stereo not shown) [polythiazide] as the compound, how does the inhibition at 100 µM (hNCC(C472F); 100 μM polythiazide, C472F, read-out: inhibition of transport activity) read?
**A.** ~50%

**Q.** And the “decrease in potency relative to hNCC(WT)” value (hNCC(C472F); C472F substitution)?
**A.** approximately 200,000 fold

**Q.** And the IC50 (hNCC(C472F); C472F substitution, estimated from ~50% inhibition at 100 μM)?
**A.** ~100 µM

**Q.** And the “inhibition of transport activity” value (hNCC(T352I))?
**A.** fully inhibited; also recorded: completely inhibited
